# Reference: patent publication US9777012B2, “Substituted furo[2,3-d]pyrimidines as multi-targeted receptor tyrosine kinase inhibitors and microtubule targeting antitumor agents” (Duquesne University of the Holy Spirit, priority 2014, dated 2017)
# Values joined by “and” are separate entries in the source; they are usually repeats but may differ in a detail not shown here. Identical values can stand only once.
# Tests used:
# WTβ3 cells = assay: SRB antiproliferative assay, WTβ3 (HeLa overexpressing βIII tubulin); format: cell-based; conditions: relative resistance, WTβ3 vs parental HeLa
# M6/6 cells = assay: SRB antiproliferative assay, M6/6 (SK-OV-3 expressing Pgp); format: cell-based; conditions: for Rr value: relative resistance, M6/6 (Pgp) vs parental SKOV3; for IC50: Homo sapiens, SK-OV-3, SRB assay, 48 h, Pgp expressing, read-out: IC50 ± SD in M6/6 cells
# tubulin = assay: Inhibition of tubulin assembly (purified tubulin); format: biochemical; conditions: read-out: Inhibition tubulin assembly IC50(μM) ± SD
# [1] = tested on: cellular microtubules in A-10 cells; assay: Cellular microtubule depolymerization, indirect immunofluorescence; format: cell-based; conditions: for effect on cellular microtubules: result in words
# Protocol: Evaluation of microtubule inhibition was performed using previously described methods.^22 Indirect immunofluorescence was used to evaluate the effects of the compounds on cellular microtubules as described previously.^38 Briefly, A-10 cells were treated for 18 h with vehicle (DMSO) or a compound, and microtubule effects were evaluated microscopically using β-tubulin antibody. The EC50 was calculated from 3 independent experiments and expressed as the mean±SD.
# VEGFR-2 = biological target: T1, VEGFR-2 (Homo sapiens, UniProt P35968); assay: Phosphotyrosine ELISA cytoblot, VEGFR-2 (U251 cells); format: cell-based; conditions: for IC50: U251 cells, phosphotyrosine ELISA, VEGF stimulation, read-out: VEGFR-2 kinase inhibition; for fold better than sunitinib, VEGFR-2: VEGFR-2 expressing cells
# T1 construct: tumor cell lines naturally expressing high levels of EGFR (A431), VEGFR-2 (U251); endogenous in cells; host or cells: U251
# T1 sequence (P35968 20-1356): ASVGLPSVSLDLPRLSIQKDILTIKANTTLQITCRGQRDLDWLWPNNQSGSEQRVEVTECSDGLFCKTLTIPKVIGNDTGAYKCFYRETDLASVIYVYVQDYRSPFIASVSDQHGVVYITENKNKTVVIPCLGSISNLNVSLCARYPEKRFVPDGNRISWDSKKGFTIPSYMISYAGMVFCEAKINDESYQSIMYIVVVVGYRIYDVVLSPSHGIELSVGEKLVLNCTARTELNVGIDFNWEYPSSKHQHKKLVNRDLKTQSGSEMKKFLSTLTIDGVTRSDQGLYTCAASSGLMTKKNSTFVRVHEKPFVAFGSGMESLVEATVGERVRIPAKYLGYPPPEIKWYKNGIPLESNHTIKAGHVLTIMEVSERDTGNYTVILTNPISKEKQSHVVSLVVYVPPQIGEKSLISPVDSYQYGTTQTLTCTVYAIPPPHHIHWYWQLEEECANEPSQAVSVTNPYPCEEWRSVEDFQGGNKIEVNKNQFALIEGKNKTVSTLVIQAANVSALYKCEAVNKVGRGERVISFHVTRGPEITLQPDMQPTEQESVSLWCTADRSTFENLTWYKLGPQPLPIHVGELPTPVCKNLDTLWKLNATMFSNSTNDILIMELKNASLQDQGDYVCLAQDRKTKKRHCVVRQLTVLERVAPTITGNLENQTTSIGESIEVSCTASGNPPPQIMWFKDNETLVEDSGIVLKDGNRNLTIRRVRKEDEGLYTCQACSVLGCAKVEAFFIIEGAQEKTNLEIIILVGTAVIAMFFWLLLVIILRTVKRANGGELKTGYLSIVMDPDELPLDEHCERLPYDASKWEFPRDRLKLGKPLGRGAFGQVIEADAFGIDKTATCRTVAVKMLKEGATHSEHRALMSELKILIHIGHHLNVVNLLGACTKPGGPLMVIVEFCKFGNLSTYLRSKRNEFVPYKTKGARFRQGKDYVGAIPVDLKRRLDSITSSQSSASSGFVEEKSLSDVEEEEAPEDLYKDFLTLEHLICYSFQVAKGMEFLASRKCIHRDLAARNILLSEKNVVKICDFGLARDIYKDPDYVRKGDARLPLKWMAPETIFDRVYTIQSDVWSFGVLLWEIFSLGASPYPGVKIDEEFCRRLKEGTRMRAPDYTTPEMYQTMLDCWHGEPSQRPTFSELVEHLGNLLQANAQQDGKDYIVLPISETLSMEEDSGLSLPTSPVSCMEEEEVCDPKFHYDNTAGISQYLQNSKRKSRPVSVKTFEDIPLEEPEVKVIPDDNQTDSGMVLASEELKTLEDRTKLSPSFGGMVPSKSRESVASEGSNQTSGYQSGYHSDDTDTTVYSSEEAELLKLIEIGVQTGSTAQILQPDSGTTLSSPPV
# Protocol: (§1) Phosphotyrosine ELISA. Cells used were tumor cell lines naturally expressing high levels of EGFR (A431), VEGFR-2 (U251), and PDGFR-β (SH-SY5Y). […] The reaction was stopped and cells were permeabilized by quickly removing the media from the cells and adding ice-cold Tris-buffered saline (TBS) containing 0.05% Triton X-100, protease inhibitor cocktail and tyrosine phosphatase inhibitor cocktail. The TBS solution was then removed and cells fixed to the plate for 30 min at 60° C. and further incubation in 70% ethanol for an additional 30 min. Cells were further exposed to block (TBS with 1% BSA) for 1 h, washed, and then a horseradish peroxidase (HRP)-conjugated phosphotyrosine (PY) antibody was added overnight.
# EGFR = biological target: T2, EGFR (Homo sapiens, UniProt P00533); assay: Phosphotyrosine ELISA cytoblot, EGFR (A431 cells); format: cell-based; conditions: EGF stimulation, read-out: EGFR kinase inhibition
# T2 construct: tumor cell lines naturally expressing high levels of EGFR (A431); endogenous in cells; host or cells: A431
# T2 sequence (P00533 25-1210): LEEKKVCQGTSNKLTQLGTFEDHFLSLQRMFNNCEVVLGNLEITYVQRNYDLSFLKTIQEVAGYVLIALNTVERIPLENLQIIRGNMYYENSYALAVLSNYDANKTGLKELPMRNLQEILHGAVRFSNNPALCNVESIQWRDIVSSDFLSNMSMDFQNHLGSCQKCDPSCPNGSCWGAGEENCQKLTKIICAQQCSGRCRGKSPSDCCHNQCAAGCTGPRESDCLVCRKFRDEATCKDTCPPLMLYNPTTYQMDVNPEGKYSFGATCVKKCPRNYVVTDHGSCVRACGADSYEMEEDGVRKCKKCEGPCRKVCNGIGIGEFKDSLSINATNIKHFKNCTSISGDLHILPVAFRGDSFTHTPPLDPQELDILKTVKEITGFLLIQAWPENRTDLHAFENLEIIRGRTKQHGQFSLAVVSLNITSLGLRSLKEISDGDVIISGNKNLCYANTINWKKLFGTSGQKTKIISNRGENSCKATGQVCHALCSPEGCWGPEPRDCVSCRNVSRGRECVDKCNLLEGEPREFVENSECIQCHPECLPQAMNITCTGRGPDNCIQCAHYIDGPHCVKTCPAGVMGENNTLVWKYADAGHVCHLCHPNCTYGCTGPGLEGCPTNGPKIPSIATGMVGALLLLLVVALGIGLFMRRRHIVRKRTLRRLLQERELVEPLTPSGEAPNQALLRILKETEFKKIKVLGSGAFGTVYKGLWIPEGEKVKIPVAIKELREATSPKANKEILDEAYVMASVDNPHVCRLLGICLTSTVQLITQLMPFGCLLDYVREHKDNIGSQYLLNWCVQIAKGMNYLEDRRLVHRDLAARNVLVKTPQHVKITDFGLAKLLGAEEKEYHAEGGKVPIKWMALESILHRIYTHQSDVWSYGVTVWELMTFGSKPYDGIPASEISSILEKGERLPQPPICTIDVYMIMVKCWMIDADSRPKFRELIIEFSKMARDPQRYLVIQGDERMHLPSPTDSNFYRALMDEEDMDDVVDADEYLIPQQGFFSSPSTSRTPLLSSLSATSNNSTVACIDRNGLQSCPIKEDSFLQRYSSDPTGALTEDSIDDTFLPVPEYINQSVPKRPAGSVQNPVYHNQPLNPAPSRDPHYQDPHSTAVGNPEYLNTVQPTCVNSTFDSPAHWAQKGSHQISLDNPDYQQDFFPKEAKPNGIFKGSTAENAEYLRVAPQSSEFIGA
# Protocol: as §1
# PDGFR-β = biological target: T3, PDGFR-β (Homo sapiens, UniProt P09619); assay: Phosphotyrosine ELISA cytoblot, PDGFR-β (SH-SY5Y cells); format: cell-based; conditions: for fold better than sunitinib, PDGFR-β: PDGFR-β expressing cells; for IC50: SH-SY5Y cells, phosphotyrosine ELISA, PDGF-BB stimulation, read-out: PDGFR-β kinase inhibition
# T3 construct: naturally expressing high levels of EGFR (A431), VEGFR-2 (U251), and PDGFR-β (SH-SY5Y); endogenous in cells; host or cells: SH-SY5Y
# T3 sequence (P09619 33-1106): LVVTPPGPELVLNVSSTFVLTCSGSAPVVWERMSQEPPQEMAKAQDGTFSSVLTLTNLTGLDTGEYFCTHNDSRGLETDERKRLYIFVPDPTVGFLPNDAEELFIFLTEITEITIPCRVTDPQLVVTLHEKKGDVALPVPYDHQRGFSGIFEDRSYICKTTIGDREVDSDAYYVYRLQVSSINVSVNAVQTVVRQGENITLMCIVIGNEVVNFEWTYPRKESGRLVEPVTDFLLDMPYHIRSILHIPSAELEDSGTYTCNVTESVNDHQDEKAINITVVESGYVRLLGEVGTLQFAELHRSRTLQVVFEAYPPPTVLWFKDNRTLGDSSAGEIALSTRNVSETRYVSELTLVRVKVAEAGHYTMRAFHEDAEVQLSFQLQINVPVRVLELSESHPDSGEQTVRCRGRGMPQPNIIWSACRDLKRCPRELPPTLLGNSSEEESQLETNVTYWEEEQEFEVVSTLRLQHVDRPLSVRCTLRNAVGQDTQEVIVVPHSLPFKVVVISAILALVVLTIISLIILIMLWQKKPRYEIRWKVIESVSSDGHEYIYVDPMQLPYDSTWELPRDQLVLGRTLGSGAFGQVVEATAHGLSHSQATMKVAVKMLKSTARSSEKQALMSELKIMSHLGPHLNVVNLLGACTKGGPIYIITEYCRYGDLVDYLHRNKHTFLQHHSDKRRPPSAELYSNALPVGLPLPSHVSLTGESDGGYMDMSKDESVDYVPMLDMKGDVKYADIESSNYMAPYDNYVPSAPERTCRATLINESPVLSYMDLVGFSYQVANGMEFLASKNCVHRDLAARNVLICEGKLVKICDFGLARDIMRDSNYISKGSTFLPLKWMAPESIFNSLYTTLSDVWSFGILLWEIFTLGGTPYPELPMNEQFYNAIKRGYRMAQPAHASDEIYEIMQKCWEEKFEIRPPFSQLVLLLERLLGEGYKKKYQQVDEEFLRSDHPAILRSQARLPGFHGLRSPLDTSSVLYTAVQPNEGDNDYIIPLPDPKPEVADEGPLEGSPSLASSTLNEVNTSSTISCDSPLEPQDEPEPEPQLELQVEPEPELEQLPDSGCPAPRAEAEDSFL
# Protocol: as §1
# A431 cancer cells = assay: A431 cytotoxicity (cell proliferation); format: cell-based; conditions: Homo sapiens, A-431; A431 cancer cells overexpressing EGFR
smiles,measurement,setting,value
"COc1ccc(/C=C\c2cc(OC)c(OC)c(OC)c2)cc1O [CA-4, combretastatin A-4, reference compound]",Rr value,WTβ3 cells,1.0
same,Rr value,M6/6 cells,0.4
COc1ccc(N(C)c2nc(C)nc3oc(C)cc23)cc1 [Compound 1],Rr value,WTβ3 cells,0.8
same,Rr value,M6/6 cells,1.7
same,IC50,tubulin,2.4 ± 0.01 µM
same,EC50,"[1]; Rattus norvegicus, A10, 18 h, read-out: EC50 for MT depolymerization in A · 10 cells",103 nM
"COc1ccc(N(C)c2nc(C)nc3oc(C)cc23)cc1OC [Compound 3, N-(3,4-dimethoxyphenyl)-N,2,6-trimethylfuro[2,3-d]pyrimidin-4-amine]",effect on cellular microtubules,[1],dose-dependent loss of cellular microtubules
"COc1cc(N(C)c2nc(C)nc3oc(C)cc23)cc(OC)c1OC [Compound 4, N,2,6-trimethyl-N-(3,4,5-trimethoxyphenyl)furo[2,3-d]pyrimidin-4-amine]",IC50,VEGFR-2,> 300 nM
same,IC50,EGFR,> 500 nM
"Cc1nc(N(C)c2ccc3c(c2)CCO3)c2cc(C)oc2n1 [Compound 6, N-(2,3-dihydro-1-benzofuran-5-yl)-N,2,6-trimethylfuro[2,3-d]pyrimidin-4-amine]","fold better than sunitinib, VEGFR-2",VEGFR-2,3 fold
same,IC50,M6/6 cells,155 ± 17.2 nM
same,Rr value,M6/6 cells,1.3
same,effect on cellular microtubules,[1],dose-dependent loss of cellular microtubules
same,"fold better than sunitinib, PDGFR-β",PDGFR-β,about 4 fold
"Cc1nc(N(C)c2ccc3occc3c2)c2cc(C)oc2n1 [Compound 7, N-1-benzofuran-5-yl-N,2,6-trimethylfuro[2,3-d]pyrimidin-4-amine]","fold better than sunitinib, VEGFR-2",VEGFR-2,3 fold
same,IC50,M6/6 cells,509 ± 4.8 nM
same,Rr value,M6/6 cells,1.2
same,effect on cellular microtubules,[1],dose-dependent loss of cellular microtubules
same,"fold better than sunitinib, PDGFR-β",PDGFR-β,about 4 fold
"COc1ccc2c(c1)CCN2c1nc(C)nc2oc(C)cc12 [Compound 8, 4-(5-methoxyindolin-1-yl)-2,6-dimethylfuro[2,3-d]pyrimidine]",effect on cellular microtubules,[1],no effect on cellular microtubules
"COc1ccc2c(ccn2-c2nc(C)nc3oc(C)cc23)c1 [Compound 9, 4-(5-methoxy-1H-indol-1-yl)-2,6-dimethylfuro[2,3-d]pyrimidine]",IC50,EGFR,> 500 nM
"COc1ccc2c(c1)CCCN2c1nc(C)nc2oc(C)cc12 [Compound 10, 4-(6-methoxy-3,4-dihydroquinolin-1(2H)-yl)-2,6-dimethylfuro[2,3-d]pyrimidine]",effect on cellular microtubules,[1],dose-dependent loss of cellular microtubules
"CCOc1ccc(N(C)c2nc(C)nc3oc(C)cc23)cc1 [Compound 11, N-(4-ethoxyphenyl)-N,2,6-trimethylfuro[2,3-d]pyrimidin-4-amine]",IC50,VEGFR-2,38.5 ± 4.7 nM
same,IC50,EGFR,102 ± 20.1 nM
same,IC50,PDGFR-β,84 ± 10 nM
"CCCOc1ccc(N(C)c2nc(C)nc3oc(C)cc23)cc1 [Compound 12, N-2,6-trimethyl-N-(4-propoxyphenyl)furo[2,3-d]pyrimidin-4-amine]",IC50,VEGFR-2,121 ± 18.6 nM
same,IC50,EGFR,> 500 nM
same,IC50,A431 cancer cells,92.9 ± 10.1 nM
same,IC50,M6/6 cells,30.8 ± 1.7 nM
same,Rr value,M6/6 cells,1.3
same,IC50,PDGFR-β,132 ± 14.4 nM
"CC(=O)O[C@H]1C(=O)[C@@]2(C)[C@H]([C@H](OC(=O)c3ccccc3)[C@]3(O)C[C@H](OC(=O)[C@H](O)[C@@H](NC(=O)c4ccccc4)c4ccccc4)C(C)=C1C3(C)C)[C@]1(OC(C)=O)CO[C@@H]1C[C@@H]2O [Paclitaxel, reference compound]",Rr value,WTβ3 cells,17.3
same,Rr value,M6/6 cells,over 250 and 265.2
